pIC50: −log10 of the molar value. Structures can show the parent of a compound that is named as a salt.
molecular target: T1, Recombinant Human SSAO/VAP-1/AOC3 (Homo sapiens, UniProt Q16853); assay: Human Semicarbazide-Sensitive Amine Oxidase (SSAO) Assay; format: biochemical; settings: recombinant enzyme, 30 minutes preincubation at 37° C., benzylamine substrate, Amplex Ultra Red/HRP fluorescence
T1 construct: purchased R&D systems 3957-AO
T1 sequence (Q16853 1-763): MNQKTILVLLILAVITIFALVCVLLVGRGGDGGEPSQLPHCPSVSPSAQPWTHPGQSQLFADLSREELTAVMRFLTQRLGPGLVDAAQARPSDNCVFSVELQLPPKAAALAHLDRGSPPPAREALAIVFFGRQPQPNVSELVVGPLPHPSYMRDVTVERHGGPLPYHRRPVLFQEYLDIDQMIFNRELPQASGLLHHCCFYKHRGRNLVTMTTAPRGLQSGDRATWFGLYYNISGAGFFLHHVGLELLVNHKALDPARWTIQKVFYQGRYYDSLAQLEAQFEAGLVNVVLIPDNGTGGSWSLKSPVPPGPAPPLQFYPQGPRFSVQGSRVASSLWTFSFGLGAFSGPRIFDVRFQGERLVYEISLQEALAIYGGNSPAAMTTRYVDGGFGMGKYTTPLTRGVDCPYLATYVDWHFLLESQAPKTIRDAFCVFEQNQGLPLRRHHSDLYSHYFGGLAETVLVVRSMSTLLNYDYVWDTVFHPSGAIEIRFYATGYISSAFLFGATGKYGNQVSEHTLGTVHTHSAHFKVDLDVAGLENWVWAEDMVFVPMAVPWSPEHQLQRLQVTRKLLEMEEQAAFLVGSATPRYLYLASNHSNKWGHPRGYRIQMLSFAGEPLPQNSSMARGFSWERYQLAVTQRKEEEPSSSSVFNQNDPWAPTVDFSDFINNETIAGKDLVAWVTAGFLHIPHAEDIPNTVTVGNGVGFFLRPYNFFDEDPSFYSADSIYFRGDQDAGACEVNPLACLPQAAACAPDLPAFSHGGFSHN
Protocol: Compounds were dissolved in DMSO to provide a Concentration Response Curve (CRC; at 500 times the final concentration) over a range of 6-10 dilutions.
Recombinant Human SSAO/VAP-1/AOC3 (R&D systems; Catalog #3957-AO) was used to screen compound potency in vitro, according to previously described methods (J Pharmacol Exp Ther. 2013 November; 347(2):365-74). SSAO enzyme was suspended in 50 mM HEPES buffer to a working concentration of 2.5 μg/ml and 40 μL of this enzyme mixture was then added to each well of a F16 Black Maxisorp 96 well Plate (Nunc, Catalog #475515). Ten microliters of each test compound (at 5 times the final concentration) were added to each well, resulting in a final well volume of 50 μL of the enzyme and inhibitor mixture. The compounds were preincubated with the enzyme for 30 minutes at 37° C., prior to the addition of a 40 μL volume of Amplex Ultra Red (125 uM AUR; Molecular Probes, Catalog # A36006)/Horseradish peroxidase (2.5 U/ml HRP; Sigma-Aldrich Catalog # P8375) oxidase detection reagent containing cytochrome C ([…]; Sigma-Aldrich Catalog # C7752). Cytochrome C was included in the AUR/HRP detection mixture to reduce the background fluorescence that can occur via the spontaneous redox reaction between AUR and HRP. The SSAO enzyme reaction was then initiated by adding 10 μL of the SSAO substrate, benzylamine (Sigma-Aldrich Catalog # B5136), and SSAO activity was measured in kinetic mode over a 30-120 minute sampling period (excit. 544 nm; emit 590 nm; cut off 570 nm; medium gain) to obtain IC50 values for enzyme activity in each treatment well.

Compound | pIC50
CNC(=O)C1(c2ccc(OC/C(=C/F)CN)cc2)CCCCC1 [Compound 1.01, (E)-1-(4-((2-(Aminomethyl)-3-fluoroallyl)oxy)phenyl)-N-methylcyclohexanecarboxamide] | 7.00 to 8.00
CNC(=O)C12CCC(c3ccc(OC/C(=C/F)CN)cc3)(CC1)CC2 [Compound 2.03, (E)-4-(4-((2-(aminomethyl)-3-fluoroallyl)oxy)phenyl)-N-methylbicyclo[2.2.2]octane-1-carboxamide Hydrochloride] | ≥ 8.00
COC(=O)C12CCC(c3ccc(OC/C(=C/F)CN)cc3)(CC1)CC2 [Compound 2.04, (E)-methyl 4-(4-((2-(aminomethyl)-3-fluoroallyl)oxy)phenyl)bicyclo [2.2.2]octane-1-carboxylate] | ≥ 8.00
NC/C(=C\F)COc1ccc(C23CCC(C(=O)O)(CC2)CC3)cc1 [Compound 2.05, (E)-4-(4-((2-(amino-methyl)-3-fluoroallyl)oxy)phenyl) bicyclo[2.2.2]octane-1-carboxylic acid] | 7.00 to 8.00
NC/C(=C\F)COc1ccc(C23CCC(C(=O)NC4CCOCC4)(CC2)CC3)cc1 [Compound 2.06, (E)-4-(4-((2-(Aminomethyl)-3-fluoroallyl)oxy)phenyl)-N-(tetrahydro-2H-pyran-4-yl)bicyclo[2.2.2]octane-1-carboxamide Hydrochloride] | ≥ 8.00
NC/C(=C/F)COc1ccc(C23CCC(C(=O)NC4CCOCC4)(CC2)CC3)cc1 [Compound 2.06b, (Z)-4-(4-((2-(amino-methyl)-3-fluoroally)oxy)phenyl)-N-(tetrahydro-2H-pyran-4-yl)bicyclo[2.2.2]octane-1-carboxamide] | ≥ 8.00
NC/C(=C\F)COc1ccc(C23CCC(C(=O)N4CCOCC4)(CC2)CC3)cc1 [Compound 2.07] | ≥ 8.00
NC/C(=C\F)COc1ccc(C23CCC(C(=O)NCCC(=O)O)(CC2)CC3)cc1 [Compound 2.08, (E)-3-(4-(4-((2-(aminomethyl)-3-fluoroallyl)oxy)phenyl)bicyclo[2.2.2]octane-1-carboxamido)propanoic acid] | ≥ 8.00
NC/C(=C\F)COc1ccc(C23CCC(C(=O)NCc4nnn[nH]4)(CC2)CC3)cc1 [Compound 2.09, (E)-N-((1H-tetrazol-5-yl)methyl)-4-(4-((2-(aminomethyl)-3-fluoroallyl)oxy)phenyl) bicyclo[2.2.2]octane-1-carboxamide] | ≥ 8.00
NC/C(=C\F)COc1ccc(C23CCC(C(N)=O)(CC2)CC3)cc1 [Compound 2.10, (E)-4-(4-((2-(aminomethyl)-3-fluoroallyl)oxy)phenyl) bicyclo[2.2.2]octane-1-carboxamide] | ≥ 8.00
NC/C(=C\F)COc1ccc(C23CCC(C(=O)NCCc4nnn[nH]4)(CC2)CC3)cc1 [Compound 2.11, (E)-N-(2-(1H-tetrazol-5-yl)ethyl)-4-(4-((2-(aminomethyl)-3-fluoroallyl)oxy)phenyl) bicyclo[2.2.2]octane-1-carboxamide] | ≥ 8.00
COC(=O)C1CCN(C(=O)C23CCC(c4ccc(OC/C(=C/F)CN)cc4)(CC2)CC3)CC1 [Compound 2.12, (E)-methyl 1-(4-(4-((2-(aminomethyl)-3-fluoroallyl)oxy)phenyl)bicyclo[2.2.2]octane-1-carbonyl)piperidine-4-carboxylate] | ≥ 8.00
NC/C(=C\F)COc1ccc(C23CCC(C(=O)N4CC(C(=O)O)C4)(CC2)CC3)cc1 [Compound 2.13, (E)-1-(4-(4-((2-(aminomethyl)-3-fluoroallyl)oxy)phenyl)bicyclo[2.2.2]octane-1-carbonyl)azetidine-3-carboxylic acid] | ≥ 8.00
NC/C(=C\F)COc1ccc(C23CCC(C(=O)N4CCC(O)CC4)(CC2)CC3)cc1 [Compound 2.14, (E)-(4-(4-((2-(aminomethyl)-3-fluoroallyl)oxy)phenyl)bicyclo[2.2.2]octan-1-yl) (4-hydroxypiperidin-1-yl)methanone] | ≥ 8.00
COCCNC(=O)C12CCC(c3ccc(OC/C(=C/F)CN)cc3)(CC1)CC2 [Compound 2.15, (E)-4-(4-((2-(aminomethyl)-3-fluoroallyl)oxy)phenyl)-N-(2-methoxyethyl) bicyclo[2.2.2] octane-1-carboxamide] | ≥ 8.00

Other lines, results leading:

pIC50 | Compound
≥ 8.00 | CNC(=O)[C@H]1C2CC3CC1C[C@@](c1ccc(OC/C(=C/F)CN)cc1)(C3)C2 (single isomer, unassigned) [Compound 6, anti-5-(4-(((E)-2-(Aminomethyl)-3-fluoroallyl)oxy)phenyl)-N-methyladamantane-2-carboxamide Hydrochloride]
≥ 8.00 | CNC(=O)[C@H]1C2CC3CC1C[C@](c1ccc(OC/C(=C/F)CN)cc1)(C3)C2 (single isomer, unassigned) [Compound 6.01, syn-5-(4-(((E)-2-(Aminomethyl)-3-fluoroallyl)oxy)phenyl)-N-methyladamantane-2-carboxamide Hydrochloride]
≥ 8.00 | NC/C(=C\F)COc1ccc([C@]23CC4CC(C2)[C@@H](C(=O)NC2CCOCC2)C(C4)C3)cc1 (single isomer, unassigned) [Compound 6.02, syn-5-(4-(((E)-2-(Aminomethyl)-3-fluoroallyl)oxy)phenyl)-N-(tetrahydro-2H-pyran-4-yl)adamantane-2-carboxamide Hydrochloride]
≥ 8.00 | NC/C(=C\F)COc1ccc([C@]23CC4CC(C2)[C@H](C(=O)NC2CCOCC2)C(C4)C3)cc1 (single isomer, unassigned) [Compound 6.03, anti-5-(4-(((E)-2-(Aminomethyl)-3-fluoroallyl)oxy)phenyl)-N-(tetrahydro-2H-pyran-4-yl)adamantane-2-carboxamide Hydrochloride]
≥ 8.00 | NC/C(=C\F)COc1ccc(C23CCC(C(=O)NC4[C@H]5COC[C@H]45)(CC2)CC3)cc1 (stereo in doubt) [Compound 2.66, 4-(4-(((E)-2-(aminomethyl)-3-fluoroallyl)oxy)phenyl)-N-((1R,5S,6s)-3-oxabicyclo[3.1.0]hexan-6-yl)bicyclo[2.2.2]octane-1-carboxamide]
≥ 8.00 | NC/C(=C\F)COc1ccc(C23CCC(C(=O)NC4[C@H]5COC[C@H]45)(CC2)CC3)cc1 (stereo in doubt) [Compound 2.70, 4-(4-(((E)-2-(aminomethyl)-3-fluoroallyl)oxy)phenyl)-N-((1R,5S,6r)-3-oxabicyclo[3.1.0]hexan-6-yl)bicyclo[2.2.2]octane-1-carboxamide]
≥ 8.00 | CO[C@@H]1CCCC(NC(=O)C23CCC(c4ccc(OC/C(=C/F)CN)cc4)(CC2)CC3)C1 (stereo in doubt) [Compound 2.115, 4-(4-(((E)-2-(aminomethyl)-3-fluoroallyl)oxy)phenyl)-N-((1S,3R)-3-methoxycyclohexyl)bicyclo [2.2.2]octane-1-carboxamide]
≥ 8.00 | NC/C(=C\F)COc1ccc(C2(C(N)=O)CCCCC2)cc1 [Compound 1, (E)-1-(4-((2-(Aminomethyl)-3-fluoroallyl)oxy)phenyl)cyclohexanecarboxamide Hydrochloride]
≥ 8.00 | CNC(=O)C12CCC(c3ccc(OC/C(=C/F)CN)c(C)c3)(CC1)CC2 [Compound 2, (E)-4-(4-((2-(aminomethyl)-3-fluoroallyl)oxy)-3-methylphenyl)-N-methylbicyclo[2.2.2]octane-1-carboxamide]
≥ 8.00 | CNC(=O)C12CCC(c3ccc(OC/C(=C\F)CN)c(C)c3)(CC1)CC2 [Compound 2.01, (Z)-4-(4-((2-(aminomethyl)-3-fluoroallyl)oxy)-3-methylphenyl)-N-methylbicyclo[2.2.2]octane-1-carboxamide]
≥ 8.00 | Cc1cc(C23CCC(C(N)=O)(CC2)CC3)ccc1OC/C(=C/F)CN [Compound 2.02, (E)-4-(4-((2-(aminomethyl)-3-fluoroallyl)oxy)-3-methylphenyl)bicyclo[2.2.2] octane-1-carboxamide]

From patent US20200181104A1, “SSAO INHIBITORS AND USES THEREOF” (METACRINE, INC., priority 2018, published 2020)
